Results published in patent US4068003A, “Method of medical treatment of myasthenia” (priority 1976, dated 1978).

Experiments:
[1] = Clinical test in myasthenia gravis, case [III] (person); format: in vivo, human
Excerpt: (§1) The effects of the present invention for the treatment of myasthenia gravis will be shown with reference to the results of clinical tests.
The patient was attacked by myasthenia. At the first medical examination, only eyelid drooping (eye fissure: left 5 mm, right 2 mm) was observed.

[2] = Acute toxicity test, single high dose, rats; format: in vivo, rats of Wistar strain; conditions: for Maximum dose (no case of deaths): single dose, 7 days observation
Excerpt: (§2) In order to evaluate the acute toxicity of a single high dose administration of Coenzyme Q10, male and female rats of Wistar strain and male and female mice of ICR-JCL strain were used, and oral, intramuscular, subcutaneous, and intravenous administrations were studied. For the oral administration of Coenzyme Q10, gum Arabic suspension was used. For the intramuscular, subcutaneous and intravenous administrations, Coenzyme Q10 was used as a solution containing a nonionic surfactant, Nikkol HCO-60. Nikkol HCO-60 is a trade mark of a non-ionic surfactant comprised of hydrogenated castor oil/polyoxyethylene-60 mole ether available from Nikko Chemicals, Co. Ltd., Japan.
(§3) Observation was carried out for 7 days by using six males and six females for each dose group.

[3] = Acute toxicity test, single high dose, mice; format: in vivo, mice of ICR-JCL strain; conditions: for Maximum dose (no case of deaths): single dose, 7 days observation
Excerpt: as §2, §3

[4] = Subacute oral toxicity test in rats (5 weeks); format: in vivo, rats of Wistar strain
Description: (§4) Coenzyme Q10 was compulsorily and orally administered every day for 5 weeks to each group consisting of 10 male rats and 10 female rats of Wistar strain. The dose was 40, 200, and 1000 mg/Kg/day, respectively. Coenzyme Q10 was used in the form of gum Arabic suspension, while the solution containing gum Arabic alone was used as the control group. Collection of blood and urine samples and autopsies were carried out 5 weeks after the initiation of administration.

[5] = Subacute oral toxicity test in rabbits (23 days); format: in vivo
Description: Coenzyme Q10 was compulsorily and orally administered every day for 23 days to each group consisting of 6 male rabbits and 5 female rabbits. The dose was 6, 60 and 600 mg/Kg/day, respectively. Coenzyme Q10 was used in the form of gum Arabic suspension, whereas the solution containing gum Arabic alone was used as the control group. On the 24th day, blood samples were collected from all the animals, and 3 males and 2 females from each group were then selectively autopsied.

[6] = Chronic oral toxicity test (26 weeks); format: in vivo, rats of Wistar strain
Description: Coenzyme Q10 was compulsorily and orally administered to each group consisting of 10 male rats and 10 female rats of Wistar strain for consecutive 26 weeks in a ratio of 6 days a week. The dose was 6, 60 and 600 mg/Kg/day, respectively. Coenzyme Q10 was used in the form of gum Arabic suspension, whereas the solution containing gum Arabic alone is used as the control group. Collection of blood and urine samples and autopsies were carried out 26 weeks after the administration.

Teratogenesis test, rats = format: in vivo; conditions: rats, 6, 60, 600 mg/Kg/day
Teratogenesis test, mice = format: in vivo; conditions: mice, 6, 60, 600 mg/Kg/day
[7] = Clinical test in myasthenia gravis, case [I] (person); format: in vivo, human
Description: as §1
They were attacked with myasthenia. […] Ambenonium is a cholinesterase inhibitor and available, for example, under the trademark Myterase. One year before the first medical examination in this hospital, they took 20 mg/day of Ambenonium.
At the first medical examination, drooping of the left eyelid, disorder in the movement of the left eyeball and fatiguing of the limbs were observed. […] The administration according to the recipe was continued for 30 days and, thereafter, dosage of Ambenonium was reduced to 10 mg/day (morning and evening: 5 mg each). This treatment was continued for a further period of 30 days.

[8] = Clinical test in myasthenia gravis, case [II] (person); format: in vivo, human
Description: as §1
Thereafter, they took 20-25 mg/day of Ambenonium perorally intermittently.
At the first medical examination, eye symptoms such as eyelid drooping and double vision and evervation in limbs were remarkable. As for the walking ability, they barely walked 100 m even when the effect of Ambenonium was exerted.
By peroral administration of 25 mg/day of Ambenonium and 30 mg/day of Coenzyme Q10, muscular contraction was caused 2-3 days after the start of the treatment. Dosage of Ambenonium was reduced to 20 mg/day. After the treatment was continued according to this recipe for one week, the heavy feeling of the body, double vision and the eye symptoms were relieved. Continuous 400 m walking was made possible.

[9] = Overall result of acute, subacute, chronic toxicity and teratogenesis tests; format: in vivo
Excerpt: as §2, §4
Coenzyme Q10 was compulsorily and orally administered every day for 23 days to each group consisting of 6 male rabbits and 5 female rabbits. The dose was 6, 60 and 600 mg/Kg/day, respectively. […]

[10] = all routes, maximum doses of Table 1
[11] = any administration group, 7 days
[12] = at the maximum dose in each administration route
[13] = intramuscular, Nikkol HCO-60 solution
[14] = intravenous, Nikkol HCO-60 solution
[15] = subcutaneous, Nikkol HCO-60 solution
[16] = rats, 40, 200, 1000 mg/Kg/day oral, 5 weeks
[17] = rabbits, 6, 60, 600 mg/Kg/day oral, 23 days
[18] = group not stated, spontaneous pneumonia and aspiration pneumonia due to erroneous administration
[19] = rats, 6, 60, 600 mg/Kg/day oral, 26 weeks, vs control group
[20] = Coenzyme Q10 30 mg/day, Ambenonium reduced to 20 mg/day, one week
[21] = Coenzyme Q10 30 mg/day peroral in combination with Distigmine Bromide

## CN(CCCCCCN(C)C(=O)Oc1ccc[n+](C)c1)C(=O)Oc1ccc[n+](C)c1 [Distigmine Bromide]
[1]; Distigmine Bromide 10 mg/day peroral plus 0.5 % eye drops, 6 months, before: left 5 mm
  eye fissure, left: 6 mm
[1]; Distigmine Bromide 10 mg/day peroral plus 0.5 % eye drops, 6 months, before: right 2 mm
  eye fissure, right: 4 mm
[1]; Distigmine Bromide peroral plus eye drops, 6 months
  symptoms (eyelid drooping): improved a little

## COC1=C(OC)C(=O)C(C/C=C(\C)CC/C=C(\C)CC/C=C(\C)CC/C=C(\C)CC/C=C(\C)CC/C=C(\C)CC/C=C(\C)CC/C=C(\C)CC/C=C(\C)CCC=C(C)C)=C(C)C1=O [Coenzyme Q10]
[2]
  toxicity (acute): extremely low
[2]; [10]
  LD50: far higher than the maximum dose mentioned above
[2]; [11]
  general condition, body weight, food intake and autopsy findings: no change
[2]; [12]
  deaths: no case of deaths
[2]; [13]
  Maximum dose (no case of deaths): 500 mg/kg
[2]; [14]
  Maximum dose (no case of deaths): 250 mg/kg
[2]; oral, gum Arabic suspension
  Maximum dose (no case of deaths): 4000 mg/kg
[2]; [15]
  Maximum dose (no case of deaths): 500 mg/kg
[3]
  toxicity (acute): extremely low
[3]; [10]
  LD50: far higher than the maximum dose mentioned above
[3]; [11]
  general condition, body weight, food intake and autopsy findings: no change
[3]; [12]
  deaths: no case of deaths
[3]; [13]
  Maximum dose (no case of deaths): 500 mg/kg
[3]; [14]
  Maximum dose (no case of deaths): 250 mg/kg
[3]; oral, gum Arabic suspension
  Maximum dose (no case of deaths): 4000 mg/kg
[3]; [15]
  Maximum dose (no case of deaths): 500 mg/kg
[4]; group not stated, spontaneous pneumonia and aspiration pneumonia due to error of administration
  dead animals during the experiment: 4 animals
[4]; rats, 5 weeks
  toxicity (subacute oral): not recognized
[4]; [16]
  hematological test and biochemical test of blood and urine: No significant change
  weight of each organ: no significant change
[4]; rats, 40, 200, 1000 mg/Kg/day oral, 5 weeks, vs control group
  general condition and body weight: no difference
[5]; 7th, 14th and 24th days
  electron-microscopic observation of liver (minute structure): not recognized abnormal findings
[5]; hematoxylin.Eosine staining and liver fat staining, 23 days
  macroscopical and histological observation: abnormalities were not recognized
[5]; [17]
  hematological test and biochemical test of blood: Abnormal findings were not obtained
  weight of each organ: no effect
[5]; rabbits, 6, 60, 600 mg/Kg/day oral, 23 days, vs control group
  general condition and increase of body weight: no difference
[5]; rabbits, 23 days
  toxicity (subacute oral): not recognized
[6]; [18]
  deaths, females: 3 females
  deaths, males: 11 males
[6]; hemoxylin.Eosine staining and liver fat staining, 26 weeks, vs control group
  macroscopical and histological observation: abnormalities were not recognized
[6]; [19]
  body weight: increased the same as that of the control group
  general condition: no difference
[6]; rats, 26 weeks
  toxicity (chronic oral): no toxicity was observed
  weights of organs: no significant increase and decrease
[6]; rats, 26 weeks, vs control group
  biochemical tests of blood and urine: No significant changes
[6]; rats, 26 weeks, some increase and decrease, not dose-related
  leukocytal percentages (hematological findings): within the range of physiological fluctuations
Teratogenesis test, rats
  adverse effects in mothers, fetuses, and newborns: no adverse effects
Teratogenesis test, mice
  adverse effects in mothers, fetuses, and newborns: no adverse effects
[7]; 30 days combination, then Ambenonium reduced to 10 mg/day for further 30 days
  walking and work ability: long distance walking and light work became possible
[7]; Ambenonium reduced to 5 mg/day
  symptoms after further reduction of Ambenonium: no worsening of the symptoms was caused and the patient is now getting better
[7]; Coenzyme Q10 30 mg/day peroral in combination with Ambenonium, at the start
  improvement in symptoms (walking, breathing): an improvement in walking and relief in a feeling of difficulty in breathing
[8]; Coenzyme Q10 30 mg/day with Ambenonium 25 mg/day, peroral
  time to muscular contraction after start of treatment: 2 to 3 days
[8]; [20]
  continuous walking made possible: 400 m
  heavy feeling of the body, double vision and eye symptoms: relieved
[1]; [21]
  ascending and descending stairs: could ascend and descend stairs easily
  need for the dropping lotion: became unnecessary
  opening of the eyelids: improve and to stabilize the opening of the eyelids
[1]; Coenzyme Q10 30 mg/day peroral in combination with Distigmine Bromide, difficult before
  walking straight looking ahead: could walk easily
[9]
  overall safety: very safe drug, without side-effects

## CC[N+](CC)(CCNC(=O)C(=O)NCC[N+](CC)(CC)Cc1ccccc1Cl)Cc1ccccc1Cl [Ambenonium]
[7]; Ambenonium alone, 20 mg/day peroral, 4 months
  improvement in the symptoms: no significant improvement in the symptoms
[8]; at first medical examination, under effect of Ambenonium, before Coenzyme Q10, barely walked
  walking ability: ~100 m
